Laboratory results: patent publication US20240208964A1, “PYRIDOPYRIMIDINES AND METHODS OF THEIR USE” (PYRIDOPYRIMIDINES AND METHODS OF THEIR USE, priority 2020, published 2024)

Assays:
[1] = tested on: PIKFYVE TDP-43 yeast strain; assay: Propidium iodide viability assay in PIKFYVE TDP-43 yeast strain; type: cell-based; settings: PIKFYVE TDP-43 yeast model
Source text: (§1) Generation of TDP-43 yeast model expressing human PIKfyve. Human PIKFYVE (“entry clone”) was cloned into pAG416GPDccdB (“destination vector”) according to standard Gateway cloning protocols (Invitrogen, Life Technologies). The resulting pAG416GPD-PIKFYVE plasmids were amplified in E. coli and plasmid identity confirmed by restriction digest and Sanger sequencing. Lithium acetate/polyethylene glycol-based transformation was used to introduce the above PIKFYVE plasmid into a BY4741 yeast strain auxotrophic for the ura3 gene and deleted for two transcription factors that regulate the xenobiotic efflux pumps, a major efflux pump, and FAB1, the yeast ortholog of PIKFYVE (MATa, snq2::KILeu2; pdr3::Klura3;pdrl::NATMX; fab1::G418^R, his3;leu2;ura3;met15;LYS2+) (FIG. 2). Transformed yeast were plated on solid agar plates with complete synthetic media lacking uracil (CSM-ura) and containing 2% glucose. Individual colonies harboring the control or PIKFYVE TDP-43 plasmids were recovered. A plasmid containing wild-type TDP-43 under the transcriptional control of the GAL1 promoter and containing the hygromycin-resistance gene as a selectable marker was transformed into the fab1::G418^R pAG416GPD-PIKFYVE yeast strain (FIG. 1). Transformed yeast were plated on CSM-ura containing 2% glucose and 200 μg/mL […] after overnight recovery in media lacking antibiotic. Multiple independent isolates were further evaluated for cytotoxicity and TDP-43 expression levels.
(§2) Viability Assay. A control yeast strain with the wild-type yeast FAB1 gene and TDP-43 (“FAB1 TDP-43”, carries empty pAG416 plasmid), and the “PIKFYVE TDP-43” yeast strain, were assessed for toxicity using a propidium iodide viability assay. Both yeast strains were transferred from solid CSM-ura/2% glucose agar plates into 3 mL of liquid CSM-ura/2% glucose media for 6-8 hours at 30° C. with aeration. Yeast cultures were then diluted to an optical density at 600 nm wavelength (OD600) of 0.005 in 3 mL of CSM-ura/2% raffinose and grown overnight at 30° C. with aeration to an OD600 of 0.3-0.8. Log-phase overnight cultures were diluted to OD600 of 0.005 in CSM-ura containing either 2% raffinose or galactose and 150 μL dispensed into each well of a flat bottom 96-well plates. Compounds formulated in 100% dimethyl sulfoxide (DMSO) were serially diluted in DMSO and 1.5 μL diluted compound transferred to the 96-well plates using a multichannel pipet. Wells containing DMSO alone were also evaluated as controls for compound effects. Tested concentrations ranged from 15 μM to 0.11 μM. Cultures were immediately mixed to ensure compound distribution and covered plates incubated at 30° C. for 24 hours in a stationary, humified incubator.
(§3) Upon the completion of incubation, cultures were assayed for viability using propidium iodide (PI) to stain for dead/dying cells. A working solution of PI was made where, for each plate, 1 μL of 10 mM PI was added to 10 mL of CSM-ura (raffinose or galactose). The final PI solution (50 μL/well) was dispensed into each well of a new round bottom 96-well plate. The overnight 96-well assay plate was then mixed with a multichannel pipet and 50 μL transferred to the PI-containing plate. This plate was then incubated for 30 minutes at 30° C. in the dark. A benchtop flow cytometer (Miltenyi MACSquant) was then used to assess red fluorescence (B2 channel), forward scatter, and side scatter (with following settings: gentle mix, high flow rate, fast measurement, 10,000 events). Intensity histograms were then gated for “PI-positive” or “PI-negative” using the raffinose and galactose cultures treated with DMSO as controls. The DMSO controls for raffinose or galactose-containing cultures were used to determine the window of increased cell death and this difference set to 100. All compounds were similarly gated and then compared to this maximal window to establish the percent reduction in PI-positive cells.

FAB1 TDP-43 yeast strain = assay: Propidium iodide viability assay in FAB1 TDP-43 control yeast strain; type: cell-based; settings: FAB1 TDP-43 yeast model
Source text: as §1, §2, §3

## Cc1cccc(/C=N/Nc2nc(N3CCOCC3)c3nc(-c4ccncc4)n(C)c3n2)c1 [drawing 294]
[1]
  PIKfyve TDP-43 (active/inactive): Active
FAB1 TDP-43 yeast strain
  FAB1 TDP-43 (active/inactive): Inactive
